Data on two compounds can be found in patent US20180153867A1, “TREATMENT OF PROSTATE CANCER BY CONCOMITANT ADMINISTRATION OF A BROMODOMAIN INHIBITOR AND A SECOND AGENT” (Gilead Sciences, Inc., priority 2016, published 2018).

SMILES strings stand for the structures. “Also recorded” adds a separate entry of the source.

For data set [1], the system named is VCaP (AR-V7 positive) cells. The data set is described as follows: Cell growth inhibition in VCaP cells (Cell Titer-Glo, 96 hours). Particulars: for EC50: Homo sapiens, VCaP; for inhibition of cell growth and viability / effect on growth and number of viable VCaP cells (in words): 96 hours; for effect on growth and number of viable VCaP cells (in words): single agent, 3 to 10,000 nM. The format is cell-based. As for the experimental part: (§1) VCaP cells were grown under standard cell culture conditions in 10% fetal bovine serum (FBS). LNCaP cells were grown in charcoal stripped FBS supplemented with 10 nM DHT in a 3-dimensional cell spheroid culture system, which increases androgen-dependent growth. […] This concentration of enzalutamide (3000 nM) was chosen for the combination study because it matches the clinical steady state trough level of enzalutamide at the recommended dose of 160 mg QD after accounting for differences in protein binding between cell culture media and human plasma. Cell growth and number was measured by quantification of the total cellular ATP content (Cell Titer-Glo® Luminescent Cell Viability Assay) at the time of compound addition (T=0), and after 96 hours of treatment.
(§2) Referring again to FIG. 1, the Y-axis is normalized CellTiter-Glo values where the bottom of the assay (no ATP)=0% and the DMSO-treated cells=100% at the end of the assay. T=0 represents the CellTiter-Glo signal recorded at the time of compound addition. […] One representative of three independent experiments is shown.
A general note: In ATP-based viability assays light output follows the ATP content of the culture.

For data set [2], the system named is LNCaP (AR-V7 negative) cells. The data set is described as follows: Cell growth inhibition in LNCaP cells, 3-dimensional spheroid culture (Cell Titer-Glo, 96 hours). The format is cell-based. As for the experimental part: as §1, §2
The nature of data set [3]: Protein binding difference between cell culture media and human plasma. Particulars: cell culture media vs human plasma. It counts as in vitro ADME.
For data set [4] the following is noted: dog, in vivo. As for the experimental part:
The Phase 1 study will be a 3+3 dose escalation to evaluate the safety, tolerability, PK, and maximum tolerated dose of compound (I-1) after multiple dosing in patients with CRPC. The initial dose will be at 0.6 mg, and intensive safety, PK and PD monitoring will occur prior to each dose escalation. […] Approximately six dose levels will be explored. The PD assessment will be a NanoString assay that measures levels of HEXIM1 and CCR2 RNA in peripheral blood cells.

For data set [5] the following is noted: patients, enzalutamide; cited from earlier work.
The mark [6] stands for this setting: compound (I-1) alone at its projected Cmax.
Setting [7] is: compound (I-1) alone at its projected Cmin.
The mark [8] stands for this setting: compound (I-1) at its projected Cmax with 3,000 nM enzalutamide.
The mark [9] stands for this setting: compound (I-1) at its projected Cmin with 3,000 nM enzalutamide.

Take `Cc1noc(C)c1-c1cc(C(O)(c2ccccn2)c2ccccn2)c2nc(C3CC3)[nH]c2c1` [compound (I-1), (2-cyclopropyl-6-(3,5-dimethylisoxazol-4-yl)-1H-benzo[d]imidazol-4-yl)di(pyridin-2-yl)methanol]: the EC50 in data set [1] (compound (I-1) alone) came out at 130 nM; in data set [1] (in the presence of 3,000 nM enzalutamide) it was 75 nM. The “inhibition of cell growth and viability” value in data set [1] (setting [6]) is 40%; in data set [1] (setting [7]) it was 0%; in data set [1] (setting [8]) it was 65%; in data set [1] (setting [9]), 25%; in data set [2] (setting [6]), 45%; in data set [2] (setting [7]) it was 20%. For the same compound, the “inhibition of cell growth and viability” value is on record as 65% in data set [2] (setting [8]) and 45% in data set [2] (setting [9]). Besides, the “effect on growth and number of viable VCaP cells (in words)” value in data set [1] is reported as “potently reduced the growth of VCaP cells; also recorded: decreased the number of viable cells to below that recorded at the beginning of the assay (T=0)”. Also, in data set [3], the “difference in protein binding between cell culture media and human plasma” value turned out to be 5.7 ×. The dose/toxicity relationship result in data set [4] is reported as “steep dose/toxicity relationship”.
On to `CNC(=O)c1ccc(N2C(=S)N(c3ccc(C#N)c(C(F)(F)F)c3)C(=O)C2(C)C)cc1F` [enzalutamide], for which the “effect on growth and number of viable VCaP cells (in words)” value in data set [1] is “reduced the growth of VCaP cells but the magnitude of growth suppression was significantly less than that observed for compound (I-1)”. Besides, in data set [5], the “OS HR” value was 0.69 and the “increase in OS” value is recorded as 3.4 month.

The EC50 is the concentration at which the effect is half-maximal.
